In turn, `O=C(Cc1cccnc1)c1ccc(Cl)cc1Cl` yielded a melting point of 55 to 56 °C.

The compound `Cc1c(OCc2ccc(F)cc2F)cc(C)n(C2CCCCC2)c1=O` returned a melting point of 118 to 120 °C.

For the compound `COC(=O)NCc1ccc(Br)cc1F`, the melting point lay in the range of 66 to 67.5 °C.

Turning to `CCNC(=O)c1ccc(C2(C(N)=O)CN(C(=O)OC(C)(C)C)CCc3c2cc(CC)c(CC)c3Cl)cc1` (stereo not drawn), the melting point was in the range of 89 to 95 °C.

Compound `Cc1ccc(C2(CNC(=O)Nc3c(C(C)C)cccc3C(C)C)CCCC2)cc1` gave a melting point of 159 to 161 °C.

`O=C1C=C(NC(=O)C(=O)c2cn(Cc3ccc(Cl)cc3)c3ccccc23)CO1`: the melting point fell in the range of 253 to 255 °C.

The compound `CC(C)(NS(=O)(=O)c1ccccc1)c1ccccc1` displayed a melting point of 114 to 115 °C.

As for `C=CCOC(=O)c1ccc(-c2nn(-c3ccc(C(=O)ON4C(=O)CCC4=O)cc3)c3ccccc23)cc1`, the melting point came to 178 °C.

For `CCOC(=O)c1nc2ccccn2c1S(N)(=O)=O`, the melting point is 166 to 168 °C.

`CC(=O)N1CCc2oc3ncccc3c(=O)c2C1` returned a melting point of 182 to 184 °C.

Turning to `O=C1OC2CCC1OC2` (stereo not drawn), the melting point fell in the range of 56 to 57 °C.

`COC(=O)CC1=C(C)Cc2cc(F)c(F)cc21` registered a melting point of 86 to 90 °C.

As to `Cc1cc(C(=O)O)cc(C)c1N=C1NCCN1`, the melting point fell in the range of 116 to 117 °C.

As to `CC(C)NC(=O)N1CC(Oc2cccc(C(F)(F)F)c2)C1`, the melting point is 150 to 152 °C.

As for `O=C(O)c1ccc(CO[N+](=O)[O-])cc1`, the melting point was in the range of 159 to 161 °C.

As to `CN(c1cccc2cc(-c3nccs3)[nH]c12)S(=O)(=O)N1CCCC1`, the melting point was found to be 108 °C.

In the case of `CN(C)C(=O)Nc1c(Cl)cc2c(c1Cl)C(c1ccccc1F)=NCC(=O)N2C`, the melting point lay within 145 to 147 °C.

In the case of `CC(=S)NCC1CN(c2ccc(C(=O)NN)c(F)c2)C(=O)O1` (stereo not drawn), the melting point came to 177 °C.

As for `COc1ccc(-n2cnc3ccc(-c4nnc(NCc5cccc(F)c5)o4)cc32)cc1`, the melting point fell in the range of 164 to 166 °C.

For `CCOC(=O)c1c[nH]c(=O)c2cc(Cl)ccc12`, the melting point stood at 243 °C.

On to `C=CCOc1cccc2nn(C)c(S(N)(=O)=O)c12`, for which the melting point lay within 143 to 144 °C.

For `CC(C)C(S)C(=O)NC1(C(=O)NC(Cc2ccc(-c3ccccc3)s2)C(=O)O)CCCC1` (stereo not drawn), the melting point is 154 to 155 °C.

Regarding `Cc1c(C(=O)O)ccc2c3ccccc3n(Cc3ccccc3)c12`, the melting point lay in the range of 215 to 216 °C.

`O=C(O)C1CCCC1c1ccc2c(c1)OC[C@H](Cc1ccccc1)[C@H]2O` (relative stereo) showed a melting point of 129 to 130 °C.

In turn, `COc1c(C)cc(-c2cc(-c3ccncc3)c(N3CCOCC3)s2)nc1C` gave a melting point of 129 °C.

Regarding `CC(C)C(c1ccc(NC(=O)CC(=O)c2ccccc2)c([N+](=O)[O-])c1)n1ccnc1` (stereo not drawn), the melting point was determined as 106 °C.

`CC(C)On1cnc2c(N)nc3ccccc3c21`: the melting point was 224 to 225 °C.

`CC(C)(C)OC(=O)N[C@@H](CC(=O)NCCC(=O)OCc1ccccc1)C(=O)OCc1ccccc1` registered a melting point of 77 to 78 °C.

In the case of `CCOC(=O)c1cc2c(OCc3ccccc3)ccc3c(CC)c(-c4ccc(OCc5ccccc5)cc4)c1n23`, the melting point fell in the range of 114 to 116 °C.

`COc1cc2ncc(N[C@H]3CC[C@@H](O)CC3)nc2cc1OC`: the melting point was in the range of 65 to 67 °C.

The compound `CCOc1cc2cc(CO)c(CO)c(-c3ccnc(Br)c3)c2cc1OC` showed a melting point of 156 to 157 °C.

As for `Cc1cc(N2C=CNC2N)ccn1` (stereo not drawn), the melting point was found to be 167 °C.

For `O=C1NC(=O)c2c1c(-c1ccccc1Cl)cc1c2c2cc(O)c(OCCCN3CCOCC3)cc2n1CCO`, the melting point is 253 to 255 °C.

`CC1(C)CC2(CC(C)(C)N1)NC(=O)N(CC(O)COc1ccc(Cc3ccc(OCC(O)CN4C(=O)NC5(CC(C)(C)NC(C)(C)C5)C4=O)cc3)cc1)C2=O` (stereo not drawn) yielded a melting point of 113 to 118 °C.

For the compound `CCn1nnn(CCN2CCC(COC)(N(OCc3ccccc3)C(C)=O)CC2)c1=O`, the melting point was 140 to 141 °C.

With `CCCCC12CCC3=C(CCc4cc(OC)ccc43)C1=CCC2=O` (stereo not drawn), the melting point was in the range of 53 to 55 °C.

Compound `Fc1ccc2c(C3CCN(CCN4CCOCC4)CC3)noc2c1` showed a melting point of 131 to 132 °C.

As to `CC(=O)Nc1nc(CCc2ccc(CC(=O)O)s2)cs1`, the melting point lay within 172 to 174 °C.

`CCOC(=O)CC(c1ccc(OC)cc1)N1C(=O)c2ccccc2C1=O` (stereo not drawn) came in with a melting point of 32 °C.

`N#CCc1nnc2n1-c1ccc(Cl)cc1C(c1ccccc1)=NC2` had a melting point of 198 to 201 °C.

In the case of `CCn1ncc2c1ncc1c(=O)[nH]c3nc(SC)nn3c12`, the melting point was greater than 300 °C.

As to `COc1cc2ccc(C(=O)CBr)cc2cc1OC`, the melting point was in the range of 120 to 122 °C.

On to `Cc1cc(-c2ccncc2)n2ncc(C(=O)c3ccccc3)c2n1`, for which the melting point lay within 209 to 210 °C.

Compound `COc1ccc(-c2c(C#N)nn(-c3c(Cl)cc(C(F)(F)F)cc3Cl)c2N)cc1OC` yielded a melting point of 250 °C.

In turn, `CCOC(=O)C(C)(C)Oc1ccc(OCCn2c(=O)sc3cc(C(=O)c4cccc(Cl)c4)ccc32)cc1` displayed a melting point of 125 to 126 °C.

On to `COc1ccc(C(NCC(=O)Nc2c(C(C)C)cccc2C(C)C)c2ccc(OC)cc2)cc1`, for which the melting point fell in the range of 84 to 85 °C.

On to `O=C(O)c1nc(-c2ccc(Cl)cc2Cl)c(-c2ccc(Br)cc2)s1`, for which the melting point was in the range of 94 to 95 °C.

As for `O=C(O)c1cccc(Cn2cc(C3c4ccccc4C=Cc4ccccc43)c(=S)[nH]c2=O)c1`, the melting point is greater than 230 °C.

Compound `COC(=O)c1c(S(N)(=O)=O)c(C)nn1C` had a melting point of 174 to 176 °C.

For the compound `Nc1cc(-c2noc(-c3cnn4c(C(F)(F)F)cc(-c5ccc(Cl)cc5)nc34)n2)ccn1`, the melting point was 252 °C.

`O=c1cnc(-c2cccc(Cc3ccccc3)c2)nn1CC(F)(F)F` displayed a melting point of 95 to 96 °C.

`O=C(CCCCCCN(Cc1ccccc1)C(=O)c1cn2c3c(cccc13)CCC2)NO` gave a melting point of 71 to 73 °C.

In turn, `O=C(O)[C@H]1CCCN1C(=O)C(F)(F)F` returned a melting point of 48 to 51 °C.

For `COc1cc(N2CCOCC2)ccc1Nc1nc(Nc2ccc3c(c2)CCC(=O)CC3)ncc1Cl`, the melting point fell in the range of 212 to 215 °C.

Regarding `Cc1cc(C)cc(-c2cc(O)c(Sc3ccccc3CC3CC3)c(=O)o2)c1`, the melting point came to 168 °C.

For the compound `O=C(O)COc1cc(F)c(F)cc1C(=S)NCc1ccc(Br)cc1F`, the melting point was in the range of 206 to 209 °C.

As to `O=C(O)c1cnc(NCc2cccs2)nc1-c1ccccc1`, the melting point fell in the range of 212 to 213 °C.

The compound `COc1ccc(CCOc2c(-c3ccc(S(C)(=O)=O)cc3)cnn(CC(F)(F)F)c2=O)cc1OC` had a melting point of 133 to 134 °C.

In the case of `CCN(CC)CCNC(=O)c1cc(Cl)c(N)cc1OC(C)C(C)=NO` (stereo not drawn), the melting point lay within 113 to 115 °C.

`CSC(=N)Nc1ccc(Cl)c(Cl)c1` registered a melting point of 166 °C.

`O=[N+]([O-])c1cc(F)cc2c(Cl)ccnc12` showed a melting point of 120 to 130 °C.

On to `COc1nnc2cc(Cl)ccc2n1`, for which the melting point stood at 122 °C.

`COc1ccc(-c2cc(C)c(=O)[nH]n2)cc1` showed a melting point of 265 to 267 °C.

In turn, `CN[C@@H]1CN(C(=O)c2nn(C)c3ccccc23)C[C@@H]1C` (relative stereo) showed a melting point of 89 to 91 °C.

`O=S1(=O)CCN2C=CC(Cl)=C(c3ccc(Oc4ccccc4)cc3)C2=N1` came in with a melting point of 283 to 284 °C.

In the case of `CC(=O)N1c2ccccc2SC1C#N` (stereo not drawn), the melting point is 92 to 93 °C.

The compound `CC(C)(C)NC(=O)[C@@H]1CC(=O)CN1C(=O)OC(C)(C)C` displayed a melting point of 147 to 149 °C.

Compound `CCOc1cc(F)ccc1C(=O)c1ccc(OC)c(Cl)c1Cl` returned a melting point of 107 to 109 °C.

`Cc1ccc(OC2=NS(=O)(=O)N=C(Oc3ccc(C)cc3)N2C)cc1` had a melting point of 282 to 286 °C.

As for `CC1CCN2C(=N1)C(=O)c1cc(S(=O)(=O)N3CCCC3)ccc12` (stereo not drawn), the melting point was 152 to 153 °C.

Consider `CC(C)(C)c1cc(-c2c[nH]c(=S)[nH]2)cc(C(C)(C)C)c1O`, for which the melting point fell in the range of 168 to 170 °C.

`COc1ccc(-c2ccc3c(Br)c(OC)ccc3c2)cc1` registered a melting point of 172 to 174 °C.

With `COc1cc(OC)c(S(=O)(=O)Cl)c(OC)c1`, the melting point lay in the range of 126 to 129 °C.

In turn, `Cc1cccc(C)c1-n1cnc(NCC(F)(F)F)nc1=O` displayed a melting point of 212 to 213 °C.

In turn, `CCn1nc(-c2ncc(N)nc2-c2ccccc2)ccc1=O` showed a melting point of 227 to 229 °C.

`CC1(OC(=O)c2ccccc2)C(OC(=O)c2ccccc2)OC(COC(=O)c2ccccc2)C1OC(=O)c1ccccc1` (stereo not drawn) returned a melting point of 201 to 209 °C.

The compound `Fc1ccc(CCCCN2CCN(c3ncc(F)cn3)CC2)cc1` had a melting point of 59 to 61 °C.

In turn, `CC(=O)C1CCC2C3CCC4CC(=O)CCC4(C)C3C(OC(=O)CCl)CC12C` (stereo not drawn) returned a melting point of 133 to 135 °C.

As for `COc1cc(Cl)cc(Cn2c(=O)cc(C(F)(F)F)n(C)c2=O)c1Cl`, the melting point is 117 to 123 °C.

Take `COC1=C(OC)C(=O)C2=C(CC(CCCCCCCCN3CCN(c4ccccn4)CC3)C2)C1=O`: the melting point is 80 to 84 °C.

`OC1(c2ccc(Cl)cc2)CCN(CCCc2nnc3n2CCCCC3)CC1` registered a melting point of 163 °C.

Turning to `CS(=O)(=O)c1ccc(-c2cnn(-c3ccc(Oc4ccccc4)cc3)c(=O)c2-c2ccc(F)cc2)cc1`, the melting point fell in the range of 118 to 125 °C.

In the case of `O=C(N1CCOCC1)n1nnc2cc(Cl)c(Cl)cc21`, the melting point is 145 °C.

In the case of `Cc1cc(C#N)c(C)c(C(=O)Nc2ccc(F)cn2)n1`, the melting point is 196 °C.

`N#Cc1cnc2ccc(N)cc2c1Nc1ccc(F)c(Br)c1` registered a melting point of 210 to 212 °C.

With `COc1cc(C)nc(NC(=O)NS(=O)(=O)c2csc3ccccc23)n1`, the melting point was 180 to 181 °C.

`Nc1cc(S(N)(=O)=O)sc1Cl` registered a melting point of 138 °C.

For `CC(=O)OCCCN1CCC(CNC(=O)[C@@H]2CCCN2S(=O)(=O)c2ccc(Cl)c(COc3cccc4c(-n5ccnc5)cc(C)nc34)c2Cl)CC1`, the melting point was 96 °C.

For orientation: melting point means the temperature, or range, at which the solid turns liquid.
